Experimental data taken from patent US8785439B2, “2,5,7-substituted oxazolopyrimidine derivatives” (Sanofi, priority 2010, dated 2014).

The compounds below were run against T1, human Edg-1 receptor (Homo sapiens, UniProt P21453) (assay: GTP-γ-S assay using human Edg-1 receptors (SPA, CHO Flp-In cell membrane preparation)). Settings: test compound at 10 μM; high control 10 μM S1P regarded as 100% activation; background-corrected; triplicate; read-out: % Activation (Edg-1 receptor activation in percent of the activation by 10 μM S1P).
T1 construct: FLAG (N); expressed in transfected cells; membrane preparation
T1 sequence (P21453 whole entry): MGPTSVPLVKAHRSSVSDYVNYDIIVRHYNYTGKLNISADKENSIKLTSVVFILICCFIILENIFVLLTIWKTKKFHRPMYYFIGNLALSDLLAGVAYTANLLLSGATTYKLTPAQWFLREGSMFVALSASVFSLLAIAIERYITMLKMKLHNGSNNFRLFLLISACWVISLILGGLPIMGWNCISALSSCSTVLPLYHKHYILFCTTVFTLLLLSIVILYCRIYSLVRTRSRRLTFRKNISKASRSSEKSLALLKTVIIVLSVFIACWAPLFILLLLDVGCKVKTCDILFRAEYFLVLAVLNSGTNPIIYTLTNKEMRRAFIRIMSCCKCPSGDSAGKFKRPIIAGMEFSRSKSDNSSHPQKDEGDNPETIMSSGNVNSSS
Type: biochemical
Description: Determination of the Pharmacological Activity A) GTP-γ-S Assay Using Human Edg-1 Receptors
In order to determine the Edg-1 receptor activation by the compounds of the invention, a GTP-γ-S (guanosine 5′-[γ-thio]triphosphate) assay for G-protein coupled receptor binding based on the scintillation proximity assay principle was used, employing a cell membrane preparation from a CHO Flp-In cell line which constitutively overexpresses the human Edg-1 receptor.
The Flp-In™ expression system (Invitrogen, cat. no. K6010-01) allows the generation of stable mammalian cell lines into which the gene of interest has been integrated through homologous recombination at a specific genomic location called Flp Recombination Target (FRT) site by means of a Flp recombinase encoded by the pOG44 expression plasmid. The integration of the pcDNA5/FRT expression construct into the Flp-In host cell line genome results in the transcription of the gene of interest. The stably transfected cells become hygromycin-resistant.
One day prior to transfection, 200 000 Flp-In-CHO cells were seeded in Ham F-12 medium (Invitrogen, cat. no. 31765) supplemented with 10% fetal calf serum (FCS; Perbio Science, cat. no. SH30068.03) in a 6-well plate and incubated at 37° C./5% CO2 overnight. Using the FuGENE® 6 transfection reagent (Roche, cat. no. 11988387001), cells were cotransfected with the Flp recombinase expression plasmid pOG44 and a modified plasmid additionally containing the edg-1 gene (accession no. NM_001400) termed as pcDNA5-FRT-TO_nFLAG_DEST-EDG-1 with a 9:1 ratio. To obtain the modified pcDNA5-FRT-TO_nFLAG_DEST plasmid, the Invitrogen plasmid pcDNA5/FRT/TO (Invitrogen, cat. no. V6520-20) was adapted to the Gateway® (Invitrogen) cloning system by inserting a Gateway cassette containing attR recombination sites flanking a ccdB gene and a chloramphenicol-resistance gene (Gateway conversion system, Invitrogen, cat. no. 11828-029). In addition a FLAG tag epitope was added before the 5′ att recombination site to allow recombinant expression of N-terminally FLAG-tagged proteins.
For the transfection of one well, 1.08 μg of pOG44 and 0.12 μg of pcDNA5-FRT-TO_nFLAG_DEST-EDG-1 were mixed with 100 μl of serum-free Ham F-12 medium containing 6 μl of FuGENE® 6 transfection reagent. After 20 min of incubation, the transfection reagent/DNA complex was distributed dropwise on the cells. The cells were incubated for 24 h at 37° C. Then the cells from 3 wells each were transferred to a T75 flask (Greiner Cellstar®, cat. no. 658175) containing Ham F-12 medium supplemented with 10% of FCS but without antibiotic and were incubated another 24 h. 48 h after transfection, the medium was replaced by selection medium (Ham F-12 supplemented with 10% of FCS and 300 μg/ml of hygromycin B (Invitrogen, cat. no. 10687-010)). The medium was exchanged every 2 to 3 days until a resistant population of cells had grown. […] After 2 weeks of selection, the cells were transferred into T175 flasks (Greiner Cellstar®, cat. no. 660175) and cultivated for batch production. Cells were harvested from the culture flasks by short treatment (2 to 5 min) with Accutase (PAA, cat. no. L11-007), resuspended in selection medium (see above) and centrifuged at 200×g for 5 min. Cells were resuspended in a mixture of 90% of FCS and 10% of dimethylsulfoxide and stored frozen in liquid nitrogen.
A membrane preparation was obtained by standard methods from the afore-described CHO Flp-In cell line constitutively overexpressing the human Edg-1 receptor. Briefly, the cryopreserved cells were taken in culture and grown until confluency in T175 cell culture flasks (Becton Dickinson, cat. no. 35 5001). […]
With CCCOc1nc(Oc2ccc(Cl)cc2C)nc2oc(-c3cccc(C)c3)nc12 [Example 88, 5-(4-chloro-2-methyl-phenoxy)-7-propoxy-2-(3-methyl-phenyl)-oxazolo[5,4-d]pyrimidine] the activation at 10 µM was 86%. Work on CCCOc1nc(Oc2c(C)cccc2C)nc2oc(-c3cccc(C)c3)nc12 [Example 132, 5-(2,6-dimethyl-phenoxy)-7-propoxy-2-(3-methyl-phenyl)-oxazolo[5,4-d]pyrimidine] yielded an activation at 10 µM of 129%. CCCOc1nc(Sc2nc(C)cs2)nc2oc(-c3cc(F)ccc3Cl)nc12 [Example 58, 2-(2-chloro-5-fluoro-phenyl)-5-(4-methyl-thiazol-2-ylsulfanyl)-7-propoxy-oxazolo[5,4-d]pyrimidine] gave an activation at 10 µM of 102%. CCCOc1nc(Oc2cccc(Cl)c2)nc2oc(-c3cccc(C)c3)nc12 [Example 121, 5-(3-chloro-phenoxy)-7-propoxy-2-(3-methyl-phenyl)-oxazolo[5,4-d]pyrimidine] was tested, and the activation at 10 µM was 113%. CCCOc1nc(Oc2cccc(OCC)c2)nc2oc(-c3cccc(C)c3)nc12 [Example 93, 5-(3-ethoxy-phenoxy)-7-propoxy-2-(3-methyl-phenyl)-oxazolo[5,4-d]pyrimidine] showed an activation at 10 µM of 60%. For CCCOc1nc(Oc2ccc(C)cc2F)nc2oc(-c3cccc(C)c3)nc12 [Example 111, 5-(2-fluoro-4-methyl-phenoxy)-7-propoxy-2-(3-methyl-phenyl)-oxazolo[5,4-d]pyrimidine], the activation at 10 µM was 88%. For CCCOc1nc(Oc2cccc(SC(F)(F)F)c2)nc2oc(-c3cccc(C)c3)nc12 [Example 116, 7-propoxy-2-(3-methyl-phenyl)-5-(3-trifluoromethylsulfanyl-phenoxy)-oxazolo[5,4-d]pyrimidine], the activation at 10 µM was 70%. Cc1cccc(-c2nc3c(OCC4CC4)nc(SC4CCS(=O)(=O)C4)nc3o2)c1 (centres unmarked) [Example 28, 7-cyclopropylmethoxy-5-(1,1-dioxo-tetrahydro-1lambda6-thiophen-3-ylsulfanyl)-2-(3-methyl-phenyl)-oxazolo[5,4-d]pyrimidine] gave an activation at 10 µM of 69%. O=S1(=O)CCC(Sc2nc(OCC3CC3)c3nc(-c4cc(F)ccc4Cl)oc3n2)C1 (centres unmarked) [Example 13, 2-(2-chloro-5-fluoro-phenyl)-7-cyclopropylmethoxy-5-(1,1-dioxo-tetrahydro-1lambda6-thiophen-3-ylsulfanyl)-oxazolo[5,4-d]pyrimidine] showed an activation at 10 µM of 104%. Work on CCCOc1nc(SC2CCS(=O)(=O)C2)nc2oc(-c3cccc(C)c3)nc12 (centres unmarked) [Example 27, 5-(1,1-dioxo-tetrahydro-1lambda6-thiophen-3-ylsulfanyl)-7-propoxy-2-(3-methyl-phenyl)-oxazolo[5,4-d]pyrimidine] yielded an activation at 10 µM of 93%. For CCCOc1nc(OC2CCCCC2)nc2oc(-c3cc(F)ccc3Cl)nc12 [Example 80, 2-(2-chloro-5-fluoro-phenyl)-5-cyclohexyloxy-7-propoxy-oxazolo[5,4-d]pyrimidine], the activation at 10 µM was 46%. In the case of CCCOc1nc(Oc2ccccc2F)nc2oc(-c3ccc(Cl)c(Cl)c3)nc12 [Example 15, 2-(3,4-dichloro-phenyl)-5-(2-fluoro-phenoxy)-7-propoxy-oxazolo[5,4-d]pyrimidine], the activation at 10 µM is reported as 95%. For CCCOc1nc(OC2CCCCC2)nc2oc(-c3cccc(F)c3)nc12 [Example 62, 5-cyclohexyloxy-2-(3-fluoro-phenyl)-7-propoxy-oxazolo[5,4-d]pyrimidine], the activation at 10 µM was 111%. CCCOc1nc(OC2CCOCC2)nc2oc(-c3cc(F)ccc3Cl)nc12 [Example 117, 2-(2-chloro-5-fluoro-phenyl)-7-propoxy-5-(tetrahydro-pyran-4-yloxy)-oxazolo[5,4-d]pyrimidine] gave an activation at 10 µM of 63%. CCCOc1nc(Oc2cc(Cl)ccc2C)nc2oc(-c3cccc(F)c3)nc12 [Example 67, 5-(5-chloro-2-methyl-phenoxy)-2-(3-fluoro-phenyl)-7-propoxy-oxazolo[5,4-d]pyrimidine] was tested, and the activation at 10 µM was 84%. CCOc1nc(Sc2ccc(F)c(F)c2)nc2oc(-c3cccc(C)c3)nc12 [Example 12, 5-(3,4-difluoro-phenylsulfanyl)-7-ethoxy-2-(3-methyl-phenyl)-oxazolo[5,4-d]pyrimidine] gave an activation at 10 µM of 84%. CCCOc1nc(Sc2cc(C)oc2C)nc2oc(-c3cc(F)ccc3Cl)nc12 [Example 151, 2-(2-chloro-5-fluoro-phenyl)-5-(2,5-dimethyl-furan-3-ylsulfanyl)-7-propoxy-oxazolo[5,4-d]pyrimidine] gave an activation at 10 µM of 66%. With CCCOc1nc(O[C@H]2CCCC[C@@H]2F)nc2oc(-c3cccc(F)c3)nc12 [Example 48, 5-((1S,2S)-2-fluoro-cyclohexyloxy)-2-(3-fluoro-phenyl)-7-propoxy-oxazolo[5,4-d]pyrimidine] the activation at 10 µM was 105%. For CCCOc1nc(NN2CCOCC2)nc2oc(-c3cccc(C)c3)nc12 [Example 65, morpholin-4-yl-(7-propoxy-2-(3-methyl-phenyl)-oxazolo[5,4-d]pyrimidin-5-yl)-amine], the activation at 10 µM was 105%. For CCCOc1nc(Oc2ccccc2F)nc2oc(-c3cc(C)c(O)c(C)c3)nc12 [Example 6, 5-(2-Fluoro-phenoxy)-2-(4-hydroxy-3,5-dimethyl-phenyl)-7-propoxy-oxazolo[5,4-d]pyrimidine], the activation at 10 µM was 105%. Work on CCCOc1nc(Oc2cc(F)ccc2C)nc2oc(-c3cccc(C)c3)nc12 [Example 50, 5-(5-fluoro-2-methyl-phenoxy)-7-propoxy-2-(3-methyl-phenyl)-oxazolo[5,4-d]pyrimidine] yielded an activation at 10 µM of 107%. For CCCOc1nc(Oc2ccccc2)nc2oc(-c3cc(C)ccc3F)nc12 [Example 33, 2-(2-fluoro-5-methyl-phenyl)-5-phenoxy-7-propoxy-oxazolo[5,4-d]pyrimidine], the activation at 10 µM was 124%. With CCCOc1nc(Oc2ccc(CC)cc2)nc2oc(-c3cccc(C)c3)nc12 [Example 122, 5-(4-ethyl-phenoxy)-7-propoxy-2-(3-methyl-phenyl)-oxazolo[5,4-d]pyrimidine] the activation at 10 µM was 65%. In the case of Cc1ccc(F)cc1Oc1nc(OCC2CC2)c2nc(-c3ccc(Cl)c(Cl)c3)oc2n1 [Example 159, 7-cyclopropylmethoxy-2-(3,4-dichloro-phenyl)-5-(5-fluoro-2-methyl-phenoxy)-oxazolo[5,4-d]pyrimidine], the activation at 10 µM is reported as 55%. For CCCOc1nc(Oc2cc(Cl)ccc2C)nc2oc(-c3cccc(C)c3)nc12 [Example 115, 5-(5-chloro-2-methyl-phenoxy)-7-propoxy-2-(3-methyl-phenyl)-oxazolo[5,4-d]pyrimidine], the activation at 10 µM was 96%. Work on CCCOc1nc(Oc2ccc(Cl)cc2OC)nc2oc(-c3cccc(F)c3)nc12 [Example 60, 5-(4-chloro-2-methoxy-phenoxy)-2-(3-fluoro-phenyl)-7-propoxy-oxazolo[5,4-d]pyrimidine] yielded an activation at 10 µM of 80%. CCOc1nc(Oc2cccc(S(=O)(=O)N(C)C)c2)nc2oc(-c3cccc(C)c3)nc12 [Example 17, 3-(7-ethoxy-2-(3-methyl-phenyl)-oxazolo[5,4-d]pyrimidin-5-yloxy)-N,N-dimethyl-benzenesulfonamide] showed an activation at 10 µM of 55%. With CCCOc1nc(Oc2ccc(Cl)cc2OC)nc2oc(-c3cc(F)ccc3Cl)nc12 [Example 63, 2-(2-chloro-5-fluoro-phenyl)-5-(4-chloro-2-methoxy-phenoxy)-7-propoxy-oxazolo[5,4-d]pyrimidine] the activation at 10 µM was 80%. CCCOc1nc(Oc2cccnc2)nc2oc(-c3ccc(Cl)c(Cl)c3)nc12 [Example 44, 2-(3,4-dichloro-phenyl)-7-propoxy-5-(pyridin-3-yloxy)-oxazolo[5,4-d]pyrimidine] gave an activation at 10 µM of 94%.
